Source: PubChem BioAssay AID2060502 (Molecular Pharmacology Branch, DTP, NCI, 2025)

System: 885724-159-R-J1-PDC complex spheroid viability
Assay: Anticancer human tumor 885724-159-R-J1-PDC patient-derived pancreatic adenocarcinoma cell line growth inhibition [GQUAD]
Conditions: for IC50: curve of first compound; for viability, T/C: stronger effect = lower value
From the text: DNA G-quadruplex Stabilizer Agents in Combinations in Complex Spheroids
A high-throughput screen of multi-cell type tumor spheroids was designed to identify active combinations of DNA G-quadruplex stabilizer agents and targeted small molecules. Complex spheroids include a stromal component modeled by human endothelial cells (HUVEC) and fibroblasts modeled by human mesenchymal stem cells (MSCs). The concentration ranges selected for each drug and investigational agent were based upon clinically achievable concentrations if the clinical Cmax of the agent was known.
Compounds. The drugs and investigational agents: pidnarulex (CX-5461; NSC782164), APTO-253 (NSC789042), BRACO-19 (NSC847499), peposertib (NSC802822), ceralasertib (NSC780249), elimusertib (NSC800525), camonsertib (NSC841442), AZD-1390 (NSC803789), olaparib (NSC753686), talazoparib (NSC767125), ART-558 (NSC835418), sotorasib (NSC818433), MRTX-1133 (NSC836407), SN-38 (NSC673596), topotecan (NSC609699), etoposide (NSC141540), doxorubicin (NSC123127), gemcitabine (NSC613327), 5-fluorouracil (NSC19893), paclitaxel (NSC125973), vemurafenib (NSC761431), panobinostat (NSC761190), R-306465 (JNJ-16241199; NSC773264), adavosertib (NSC754352), TP-3654 (NSC805149), carboplatin (NSC241240), KSQ-4279 (NSC840948), and staurosporine (NSC755774) were obtained from the National Cancer Institute (NCI) Developmental Therapeutics Program Chemical Repository (34). The FDA-approved anticancer drug set is available from the NCI Developmental Therapeutics Program. […] The stock solutions were prepared in dimethyl sulfoxide (DMSO, Sigma-Aldrich, St. Louis, MO, cat. D2650) at 800-fold the tested concentration and stored at -70 degrees C prior to their use. All drugs and investigational agents were tested over a range starting from a high concentration at or near the clinical Cmax and decreasing in half-log increments. If the clinical Cmax for an agent had not been determined, the highest concentration tested was 10 microM.
2.3 Cell Culture. All cells were maintained in an incubator at 37 degrees C and 5% CO2 with 95% humidity. The PDC lines were cultured according to standard operating procedures established by the NCI PDMR. All PDCs were thawed and cultured in Matrigel-coated flasks prepared with a working solution of 1X Ham's F-12 nutrient mix, without supplementation (Invitrogen, cat. 11765054), 100 U/mL penicillin-streptomycin (Invitrogen, cat. 15140122), and 2.5% Matrigel (Corning Inc., cat. 354248) for the first three passages. The 857933-349-R-J2-PDC line was cultured in 6C/Colon 1B media, which includes advanced DMEM/F-12 (Thermo Fisher Scientific, cat. 12634028), 10 mM HEPES (Thermo Fisher Scientific, cat. 15630080), 1X GlutaMAX supplement (Thermo Fisher Scientific, cat. 35050061), 0.1 mg/mL primocin (InvivoGen, cat. ant-pm-2), 10% defined fetal bovine serum, heat inactivated (HyClone Laboratories Inc., cat. SH30070.03HI), 50% L-WRN conditioned media (ATCC, cat. CRL-3276), 1.25 mM N-Acetyl-L-cysteine (Sigma-Aldrich, cat. A9165), 10 mM nicotinamide (Sigma-Aldrich, cat. N0636), 1X B-27 supplement (Thermo Fisher Scientific, cat. 17504044), 1X N-2 supplement (Thermo Fisher Scientific, cat. 17502048), 10 microM Y-27632 dihydrochloride (Tocris Bioscience, cat. 1254), and 50 ng/mL human EGF recombinant protein (Thermo Fisher Scientific, cat. PHG0311). The 485176-168-R4-J1-PDC line was cultured in Panc media, which includes all 6C/Colon 1B media components plus 100 ng/mL human FGF-10 (Thermo Fisher Scientific, cat. 100-26), 500 nM SB-431542 (Selleckchem, cat. S1067), and gastrin (Tocris, cat. 3006).
[…]

[1] = second compound 0.0316 µM, first compound 0.0316 µM
[2] = second compound 0.0316 µM, first compound 0.316 µM
[3] = second compound 0.1 µM, first compound 0.0316 µM
[4] = second compound 0.1 µM, first compound 0.316 µM
[5] = second compound 0.316 µM, first compound 0.0316 µM
[6] = second compound 0.316 µM, first compound 0.316 µM
[7] = second compound 1 µM, first compound 0.0316 µM
[8] = second compound 1 µM, first compound 0.316 µM
[9] = second compound 3.16 µM, first compound 0.0316 µM
[10] = second compound 3.16 µM, first compound 0.316 µM
[11] = second compound 10 µM, first compound 0.0316 µM
[12] = second compound 10 µM, first compound 0.316 µM
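Note: spheroids exposed to agents for seven days before readout.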
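Throughout, for viability, T/C: percent of vehicle control viability where 100% = DMSO wells.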

Q: For `Cc1cccc(N(C)C(=O)C2C(O)CCN2c2nc(C)cc(C(F)(F)F)c2C#N)c1` (centres undefined) + CN(C)c1ccc(Nc2c3ccc(NC(=O)CCN4CCCC4)cc3nc3cc(NC(=O)CCN4CCCC4)ccc23)cc1, which IC50 (second compound 0.0316 µM) is on record?
A: > 10 µM

Q: And the IC50 (second compound 0.1 µM)?
A: > 10 µM

Q: And the IC50 (second compound 0.316 µM)?
A: > 10 µM

Q: And the IC50 (second compound 1 µM)?
A: > 10 µM

Q: What about the IC50 (second compound 3.16 µM) of the same compound?
A: > 10 µM

Q: And the IC50 (second compound 10 µM)?
A: > 10 µM

Q: And the viability, T/C [1]?
A: 95.6%

Q: And the viability, T/C (second compound 0.0316 µM, first compound 0.1 µM)?
A: 98%

Q: What about the viability, T/C [2] of the same compound?
A: 105%

Q: And the viability, T/C (second compound 0.0316 µM, first compound 1 µM)?
A: 92.7%

Q: What about the viability, T/C (second compound 0.0316 µM, first compound 3.16 µM) of the same compound?
A: 108%

Q: And the viability, T/C (second compound 0.0316 µM, first compound 10 µM)?
A: 97.7%

Q: And the viability, T/C [3]?
A: 90.3%

Q: What about the viability, T/C (second compound 0.1 µM, first compound 0.1 µM) of the same compound?
A: 103%

Q: And the viability, T/C [4]?
A: 104%

Q: And the viability, T/C (second compound 0.1 µM, first compound 1 µM)?
A: 90.4%

Q: And the viability, T/C (second compound 0.1 µM, first compound 3.16 µM)?
A: 90%

Q: What about the viability, T/C (second compound 0.1 µM, first compound 10 µM) of the same compound?
A: 101%

Q: What about the viability, T/C [5] of the same compound?
A: 108%

Q: What about the viability, T/C (second compound 0.316 µM, first compound 0.1 µM) of the same compound?
A: 86.2%

Q: And the viability, T/C [6]?
A: 88.3%

Q: What about the viability, T/C (second compound 0.316 µM, first compound 1 µM) of the same compound?
A: 87.1%

Q: And the viability, T/C (second compound 0.316 µM, first compound 3.16 µM)?
A: 100%

Q: What about the viability, T/C (second compound 0.316 µM, first compound 10 µM) of the same compound?
A: 102%

Q: And the viability, T/C [7]?
A: 86%

Q: What about the viability, T/C (second compound 1 µM, first compound 0.1 µM) of the same compound?
A: 80.5%

Q: What about the viability, T/C [8] of the same compound?
A: 83.3%

Q: What about the viability, T/C (second compound 1 µM, first compound 1 µM) of the same compound?
A: 82.4%

Q: And the viability, T/C (second compound 1 µM, first compound 3.16 µM)?
A: 89.7%

Q: What about the viability, T/C (second compound 1 µM, first compound 10 µM) of the same compound?
A: 83%

Q: What about the viability, T/C [9] of the same compound?
A: 79.8%

Q: And the viability, T/C (second compound 3.16 µM, first compound 0.1 µM)?
A: 68.8%

Q: And the viability, T/C [10]?
A: 92.3%

Q: What about the viability, T/C (second compound 3.16 µM, first compound 1 µM) of the same compound?
A: 81%

Q: And the viability, T/C (second compound 3.16 µM, first compound 3.16 µM)?
A: 86.1%

Q: And the viability, T/C (second compound 3.16 µM, first compound 10 µM)?
A: 86.5%

Q: And the viability, T/C [11]?
A: 77%

Q: What about the viability, T/C (second compound 10 µM, first compound 0.1 µM) of the same compound?
A: 79.3%

Q: What about the viability, T/C [12] of the same compound?
A: 75.6%

Q: And the viability, T/C (second compound 10 µM, first compound 1 µM)?
A: 80.2%

Q: What about the viability, T/C (second compound 10 µM, first compound 3.16 µM) of the same compound?
A: 78.2%

Q: What about the viability, T/C (second compound 10 µM, first compound 10 µM) of the same compound?
A: 56.5%

Q: Which results are given for `Cn1ncnc1[C@H]1c2n[nH]c(=O)c3cc(F)cc(c23)N[C@@H]1c1ccc(F)cc1` + CN(C)c1ccc(Nc2c3ccc(NC(=O)CCN4CCCC4)cc3nc3cc(NC(=O)CCN4CCCC4)ccc23)cc1?
A: IC50 (second compound 0.0316 µM): > 0.316 µM; IC50 (second compound 0.1 µM): > 0.316 µM; IC50 (second compound 0.316 µM): > 0.316 µM; IC50 (second compound 1 µM): > 0.316 µM; IC50 (second compound 3.16 µM): > 0.316 µM; IC50 (second compound 10 µM): > 0.316 µM; viability, T/C (second compound 0.0316 µM, first compound 0.000999 µM): 99%; viability, T/C (second compound 0.0316 µM, first compound 0.00316 µM): 96.7%; viability, T/C (second compound 0.0316 µM, first compound 0.00999 µM): 98.9%; viability, T/C [1]: 107%; viability, T/C (second compound 0.0316 µM, first compound 0.0999 µM): 78.5%; viability, T/C [2]: 84.9%; viability, T/C (second compound 0.1 µM, first compound 0.000999 µM): 101%; viability, T/C (second compound 0.1 µM, first compound 0.00316 µM): 112%; viability, T/C (second compound 0.1 µM, first compound 0.00999 µM): 112%; viability, T/C [3]: 93.1%; viability, T/C (second compound 0.1 µM, first compound 0.0999 µM): 96%; viability, T/C [4]: 88.3%; viability, T/C (second compound 0.316 µM, first compound 0.000999 µM): 103%; viability, T/C (second compound 0.316 µM, first compound 0.00316 µM): 96.2%; viability, T/C (second compound 0.316 µM, first compound 0.00999 µM): 97.3%; viability, T/C [5]: 86%; viability, T/C (second compound 0.316 µM, first compound 0.0999 µM): 97.2%; viability, T/C [6]: 82.1%; viability, T/C (second compound 1 µM, first compound 0.000999 µM): 101%; viability, T/C (second compound 1 µM, first compound 0.00316 µM): 75.7%; viability, T/C (second compound 1 µM, first compound 0.00999 µM): 85.8%; viability, T/C [7]: 73.4%; viability, T/C (second compound 1 µM, first compound 0.0999 µM): 76.7%; viability, T/C [8]: 76.2%; viability, T/C (second compound 3.16 µM, first compound 0.000999 µM): 86.4%; viability, T/C (second compound 3.16 µM, first compound 0.00316 µM): 79%; viability, T/C (second compound 3.16 µM, first compound 0.00999 µM): 76%; viability, T/C [9]: 76.5%; viability, T/C (second compound 3.16 µM, first compound 0.0999 µM): 81.6%; viability, T/C [10]: 75.6%; viability, T/C (second compound 10 µM, first compound 0.000999 µM): 67.3%; viability, T/C (second compound 10 µM, first compound 0.00316 µM): 85.9%; viability, T/C (second compound 10 µM, first compound 0.00999 µM): 78%; viability, T/C [11]: 74.2%; viability, T/C (second compound 10 µM, first compound 0.0999 µM): 75.8%; viability, T/C [12]: 77%
